Results on 28 molecules are retold here after patent US10214492B2, “Heterocyclic inhibitors of MCT4” (Vettore, LLC, priority 2016, dated 2019).

A value given as a limit tells only on which side of the number the result lay.

By IC50 is commonly meant the midpoint of a concentration-inhibition curve.

One experiment deals with MCT1 (Homo sapiens (Human), UniProt P53985). The experiment is described as follows: Assay 4: MCT1-mediated lactate transport in BT20 breast cancer cells. Conditions: Table 27. The class given is cell-based. Here is the method:
(§1) 10 μL of a 30 mM DMSO stock of BCECF-AM ester (Life Technologies) is added and the cells are incubated at 37° C. for 5 min. The cells are pelleted (300 g, 5 min), washed once with 1 mL Tyrode's Solution, pH 7.4, re-pelleted (300 g, 5 min), and resuspended in 1 mL Tyrode's Solution, pH 7.4.
Assay 4: MCT1-Mediated Lactate Transport in BT20 Breast Cancer Cells.
Preparation of BCECF loaded cells are as described for Assay 1. Lactate transport assay is as described for Assay 1, except 10 mM L-lactate (rather than 50 mM) is added.

For another experiment, the target named is MCT4 (Homo sapiens (Human), UniProt O15427). The experiment is described as follows: Assay 3: MCT4-mediated lactate transport in MDA-MB-231 breast cancer cells. To be noted: MDA-MB-231 cells; lactate transport. The class given is cell-based. The method, then:
as §1
MCT4 activity may be assessed by monitoring the intracellular pH change that accompanies lactate/proton symport, using the pH-sensitive fluorescent dye 2′,7′-bis-(carboxyethyl)-5(6)-carboxyfluorescein (BCECF), in a manner similar to that previously reported for MCT1 and MCT4. The following is an exemplary procedure for assaying MCT4 activity of the compounds of Formula (I).

Chain of MCT4 (O15427 whole entry, looked up): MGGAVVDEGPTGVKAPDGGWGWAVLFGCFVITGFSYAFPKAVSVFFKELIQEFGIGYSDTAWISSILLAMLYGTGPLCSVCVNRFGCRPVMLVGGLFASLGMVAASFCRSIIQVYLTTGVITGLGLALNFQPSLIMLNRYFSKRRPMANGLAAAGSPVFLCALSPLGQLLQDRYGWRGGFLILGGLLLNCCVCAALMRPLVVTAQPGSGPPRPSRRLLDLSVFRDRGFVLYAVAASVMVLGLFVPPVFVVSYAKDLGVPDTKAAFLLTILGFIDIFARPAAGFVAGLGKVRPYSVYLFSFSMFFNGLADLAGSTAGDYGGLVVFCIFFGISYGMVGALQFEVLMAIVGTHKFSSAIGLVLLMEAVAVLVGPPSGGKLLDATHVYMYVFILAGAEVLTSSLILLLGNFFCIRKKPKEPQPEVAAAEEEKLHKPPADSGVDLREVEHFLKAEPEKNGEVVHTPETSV
Chain of MCT4 (P35613 whole entry partner, looked up): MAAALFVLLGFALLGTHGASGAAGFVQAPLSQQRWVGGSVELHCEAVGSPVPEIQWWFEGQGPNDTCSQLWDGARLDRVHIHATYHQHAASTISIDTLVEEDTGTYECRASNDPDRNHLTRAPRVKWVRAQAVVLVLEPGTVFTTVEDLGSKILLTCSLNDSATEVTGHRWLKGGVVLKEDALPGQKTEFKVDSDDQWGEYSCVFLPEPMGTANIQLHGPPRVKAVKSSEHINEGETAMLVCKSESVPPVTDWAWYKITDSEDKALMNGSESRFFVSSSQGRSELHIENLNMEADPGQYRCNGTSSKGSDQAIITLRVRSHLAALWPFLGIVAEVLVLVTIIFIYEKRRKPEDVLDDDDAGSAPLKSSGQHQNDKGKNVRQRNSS
Chain of MCT1 (P53985 whole entry): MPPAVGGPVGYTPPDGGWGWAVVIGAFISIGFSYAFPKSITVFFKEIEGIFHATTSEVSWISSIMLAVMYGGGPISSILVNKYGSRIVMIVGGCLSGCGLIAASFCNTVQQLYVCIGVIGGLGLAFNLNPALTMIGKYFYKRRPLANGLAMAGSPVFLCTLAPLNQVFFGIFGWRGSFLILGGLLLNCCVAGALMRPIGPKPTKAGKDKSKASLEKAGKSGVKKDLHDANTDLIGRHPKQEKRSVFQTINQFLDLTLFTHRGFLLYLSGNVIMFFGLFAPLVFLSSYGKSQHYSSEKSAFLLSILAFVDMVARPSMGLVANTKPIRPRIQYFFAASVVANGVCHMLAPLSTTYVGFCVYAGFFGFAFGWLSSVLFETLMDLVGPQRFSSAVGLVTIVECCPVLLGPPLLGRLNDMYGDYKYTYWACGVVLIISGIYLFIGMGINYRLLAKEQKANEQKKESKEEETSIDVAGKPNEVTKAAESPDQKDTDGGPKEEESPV
Chain of MCT1 (P35613 140-385 partner): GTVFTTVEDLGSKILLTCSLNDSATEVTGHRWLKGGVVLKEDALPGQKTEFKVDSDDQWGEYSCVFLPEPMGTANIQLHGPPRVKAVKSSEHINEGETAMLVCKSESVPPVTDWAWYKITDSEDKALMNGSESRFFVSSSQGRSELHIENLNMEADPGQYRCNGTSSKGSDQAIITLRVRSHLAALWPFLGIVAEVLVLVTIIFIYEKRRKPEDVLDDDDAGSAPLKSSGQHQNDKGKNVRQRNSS

As for `CC(C)(OCc1cc(-c2ccc(OC3CC3)s2)n(Cc2ccccc2Cl)n1)C(=O)O` [Example 131, 2-([1-[(2-Chlorophenyl)methyl]-5-(5-cyclopropoxythien-2-yl)-1H-pyrazol-3-yl]methoxy)-2-methylpropanoic acid], the IC50 against MCT1 worked out at 650 nM; against MCT4, 225 nM.

As for `COc1cccc(OC)c1Cn1nc(COC(C)(C)C(=O)O)cc1-c1cccc(OCC(C)C)c1` [Example 135, 2-([1-[(2,6-Dimethoxyphenyl)methyl]-5-[3-(2-methylpropoxy)phenyl] 1H-pyrazol-3-yl]methoxy)-2-methylpropanoic acid], the results for the concentration for half-maximal inhibition (IC50) against MCT1 and against MCT4 were 220 nM and 53 nM, respectively.

Turning to `COc1cccc(-c2cc(COC(C)(C)C(=O)O)nn2CC(C)C)c1` [Example 137, 2-([5-(3-Methoxyphenyl)-1-(2-methylpropyl)-1H-pyrazol-3-yl]methoxy)-2-methylpropanoic acid], the half-inhibitory concentration (IC50) against MCT1 is over 100000 nM; against MCT4 it was 1400 nM.

Turning to `COc1cccc(-c2cc(COC(C)(C)C(=O)O)nn2CC2CCOCC2)c1` [Example 138, 2-([5-(3-Methoxyphenyl)-1-([oxan-4-yl]-methyl)-1H-pyrazol-3-yl]methoxy)-2-methylpropanoic acid], the values for the IC50 against MCT1 and against MCT4 were over 100000 nM and 535 nM, respectively.

`COc1cccc(-c2cc(COC(C)(C)C(=O)O)nn2Cc2ncccc2Cl)c1` [Example 139, 2-([1-[(3-Chloropyridin-2-yl)methyl]-5-(3-methoxyphenyl)-1H-pyrazol-3-yl)methoxy)-2-methylpropanoic acid]: the IC50 against MCT1 was over 100000 nM; against MCT4 it was 9700 nM.

For the molecule `CCOc1ccccc1Cn1nc(COC(C)(C)C(=O)O)cc1-c1cccc(OC)c1` [Example 141, 2-([1-[(2-Ethoxyphenyl)methyl]-5-(3-methoxyphenyl)-1H-pyrazol-3-yl]methoxy)-2-methylpropanoic acid], the IC50 on MCT1 stood at 33000 nM; on MCT4, 6.7 nM.

On to `COc1cccc(-c2cc(COC(C)(C)C(=O)O)nn2Cc2ccccc2OC2CC2)c1` [Example 142, 2-([1-[(2-Cyclopropoxyphenyl)methyl]-5-(3-methoxyphenyl)-1H-pyrazol-3-yl]methoxy)-2-methylpropanoic acid], for which the IC50 on MCT1 is 26000 nM; at MCT4 it was 6.3 nM.

As for `COc1cccc(-c2cc(/C=C/C(C)(C)C(=O)O)nn2Cc2ccccc2Cl)c1` [Example 143, (3E)-4-[1-[(2-Chlorophenyl)methyl]-5-(3-methoxyphenyl)-1H-pyrazol-3-yl]-2,2-dimethylbut-3-enoic Acid], the results for the 50% inhibitory concentration (IC50) on MCT1 and against MCT4 were 3300 nM and 195 nM, respectively.

With `COc1cccc(-c2cc(CCC(C)(C)C(=O)O)nn2Cc2ccccc2Cl)c1` [Example 144, 4-[1-[(2-chlorophenyl)methyl]-5-(3-methoxyphenyl)-1H-pyrazol-3-yl]-2,2-dimethylbutanoic Acid], the values for the IC50 against MCT1 and against MCT4 were 2400 nM and 127 nM, respectively.

Take `CCn1ncc2ccc(-c3cc(COC(C)(C)C(=O)O)nn3Cc3ccccc3Cl)cc21` [Example 151, Sodium 2-([1-[(2-chlorophenyl)methyl]-5-(1-ethyl-1H-indazol-6-yl)-1H-pyrazol-3-yl]methoxy)-2-methylpropanoate]: the values for the concentration for half-maximal inhibition (IC50) on MCT1 and on MCT4 were 70000 nM and 3.6 nM, respectively.

On to `CC(C)(OCc1cc(-c2cccc(OC3CC3)c2)n(-c2cccc3cn[nH]c23)n1)C(=O)O` [Example 152, 2-([5-(3-Cyclopropoxyphenyl)-1-(1H-indazol-7-yl)-1H-pyrazol-3-yl]methoxy)-2-methylpropanoic Acid], for which the figures for the IC50 against MCT1 and at MCT4 were over 100000 nM and 80 nM, respectively.

`CC(C)(OCc1cc(-c2cccc(OC3CC3)c2)n(-c2cccc3[nH]ncc23)n1)C(=O)O` [Example 153, 2-([5-(3-Cyclopropoxyphenyl)-1-(1H-indazol-4-yl)-1H-pyrazol-3-yl]methoxy)-2-methylpropanoic Acid]: the concentration for half-maximal inhibition (IC50) came out at 44000 nM against MCT1 and 830 nM against MCT4.

Regarding `Cc1n[nH]c2cccc(-n3nc(COC(C)(C)C(=O)O)cc3-c3cccc(OC4CC4)c3)c12` [Example 154, 2-([5-(3-cyclopropoxyphenyl)-1-(3-methyl-1H-indazol-4-yl)-1H-pyrazol-3-yl]methoxy)-2-methylpropanoic Acid], the results for the concentration for half-maximal inhibition (IC50) against MCT1 and against MCT4 were over 100000 nM and 240 nM, respectively.

For the molecule `CC(C)(OCc1cc(-c2ccccn2)n(-c2ccccc2Cl)n1)C(=O)O` [Example 156, 2-([1-(2-Chlorophenyl)-5-(pyridin-2-yl)-1H-pyrazol-3-yl]methoxy)-2-methylpropanoic acid], the 50% inhibitory concentration (IC50) against MCT1 was over 100000 nM; on MCT4, 1400 nM.

Consider `CC(C)(OCc1cc(-c2cccc(OCC3COC3)c2)n(-c2ccccc2F)n1)C(=O)O` [Example 158, 2-([1-(2-Fluorophenyl)-5-[3-(oxetan-3-yl-methoxy)phenyl]-1H-pyrazol-3-yl]-methoxy)-2-methylpropanoic acid], for which the half-inhibitory concentration (IC50) at MCT1 is over 100000 nM; against MCT4 it was 580 nM.

For the molecule `CC(C)(OCc1cc(-c2cccc(OC3CCC3)c2)n(-c2ccccc2F)n1)C(=O)O` [Example 159, 2-([5-(3-Cyclobutoxyphenyl)-1-(2-fluoro-phenyl)-1H-pyrazol-3-yl]methoxy)-2-methylpropanoic acid], the figures for the concentration for half-maximal inhibition (IC50) against MCT1 and against MCT4 were over 100000 nM and 11 nM, respectively.

Consider `CC(C)(OCc1cc(-c2cccc(OC3COC3)c2)n(-c2ccccc2F)n1)C(=O)O` [Example 160, 2-([1-(2-Fluorophenyl)-5-[3-(oxetan-3-yl-oxy)phenyl]-1H-pyrazol-3-yl]methoxy)-2-methylpropanoic acid], for which the IC50 against MCT1 was over 100000 nM; against MCT4, 270 nM.

In the case of `CCOc1cc(OCC)cc(-c2cc(COC(C)(C)C(=O)O)nn2-c2ccccc2C)c1` [Example 162, 2-([5-(3,5-Diethoxyphenyl)-1-(2-methyl-phenyl)-1H-pyrazol-3-yl]methoxy)-2-methylpropanoic acid], the IC50 on MCT1 was found to be 34000 nM; at MCT4 it was 6.4 nM.

`CCn1ncc2ccc(-c3cc(COC(C)(C)C(=O)O)nn3-c3ccccc3N(C)C)cc21` [Example 163, 2-([1-[2-(dimethylamino)phenyl]-5-(1-ethyl-1H-indazol-6-yl)-1Hpyrazol-3-yl]-methoxy)-2-methylpropanoic acid]: the half-inhibitory concentration (IC50) at MCT1 is 73000 nM; against MCT4, 4.4 nM.

`CCOc1ccccc1-n1nc(COC(C)(C)C(=O)O)cc1-c1cc(OC)cc(OC)c1` [Example 164, 2-([5-(3,5-Dimethoxyphenyl)-1-(2-ethoxy-phenyl)-1H-pyrazol-3-yl]methoxy)-2-methylpropanoic acid]: the values for the IC50 against MCT1 and at MCT4 were over 100000 nM and 43 nM, respectively.

In the case of `CCn1ncc2ccc(-c3cc(COC(C)(C)C(=O)O)nn3-c3cccc4cnn(C)c34)cc21` [Example 165, 2-([5-(1-Ethyl-1H-indazol-6-yl)-1-(1-methyl-1H-indazol-7-yl)-1H-pyrazol-3-yl]-methoxy)-2-methylpropanoic acid], the IC50 on MCT1 amounted to 99000 nM; at MCT4, 85 nM.

`Cn1ncc2cccc(-n3nc(COC(C)(C)C(=O)O)cc3-c3cccc(OCC4CC4)c3)c21` [Example 169, 2-([5-[3-(Cyclopropylmethoxy)phenyl]-1-(1-methyl-1H-indazol-7-yl)-1H-pyrazol-3-yl]-methoxy)-2-methylpropanoic acid]: the IC50 at MCT1 is 68000 nM; against MCT4, 12.2 nM.

For the molecule `CCOc1cc(OCC)cc(-c2cc(COC(C)(C)C(=O)O)nn2-c2cccc3cnn(C)c23)c1` [Example 171, 2-([5-(3,5-Diethoxyphenyl)-1-(1-methyl-1H-indazol-7-yl)-1H-pyiazol-3-yl]methoxy)-2-methylpropanoic acid], the concentration for half-maximal inhibition (IC50) against MCT1 worked out at 32000 nM; at MCT4, 12 nM.

Consider `CCn1ncc2cccc(-n3nc(COC(C)(C)C(=O)O)cc3-c3cccc(OCC(C)(C)C)c3)c21` [Example 172, 2-([5-(3-(2,2-Dimethylpropoxy)phenyl]-1-(1-ethyl-1H-indazol-7-yl)-1H-pyrazol-3-yl]-methoxy)-2-methylpropanoic acid], for which the IC50 at MCT1 was 33000 nM; at MCT4, 0.59 nM.

Take `CC(C)(OCc1cc(-c2cccc(OCC3COC3)c2)n(-c2ccccc2Cl)n1)C(=O)O` [Example 173, 2-([1-(2-Chlorophenyl)-5-[3-(oxetan-3-yl-methoxy)phenyl)-1H-pyraz.ol-3-yl]-methoxy)-2-methylpropanoic acid]: the IC50 on MCT1 turned out to be 66000 nM; against MCT4, 230 nM.

As to `Cn1ncc2ccc(-c3cc(COC(C)(C)C(=O)O)nn3-c3ccccc3Cl)cc21` [Example 174, 2-([1-(2-Chlorophenyl)-5-(1-methyl-1H-indazol-6-yl)-1H-pyrazol-3-yl]methoxy)-2-methylpropanoic acid], the half-maximal inhibitory concentration (IC50) against MCT1 is over 100000 nM; against MCT4 it was 101 nM.

As to `CC(C)(OCc1cc(-c2cccc(OC3COC3)c2)n(-c2ccccc2Cl)n1)C(=O)O` [Example 176, 2-([1-(2-Chlorophenyl)-5-[3-(oxetan-3-yl-oxy)phenyl]-1Hpyrazol-3-yl]methoxy)-2-methylpropanoic acid], the figures for the IC50 against MCT1 and on MCT4 were over 100000 nM and 180 nM, respectively.

`CC(C)(OCc1cc(-c2cccc(OC3CC3)c2)n(-c2ccccc2F)n1)C(=O)O` [Example 181, 2-([5-(3-cyclopropoxyphenyl)-1-(2-fluorophenyl)-1H-pyrazol-3-yl]methoxy)-2-methylpropanoate]: the half-maximal inhibitory concentration (IC50) against MCT1 was 25000 nM; against MCT4 it was 20 nM.
